# From publication PMC10564737, “Structure-based design of a phosphotyrosine-masked covalent ligand targeting the E3 ligase SOCS2” (Nature Communications, 2023)
# Values joined by “and” are separate entries in the source; they are usually repeats but may differ in a detail not shown here. Equal values may be shown once. Read-outs that look alike come from different tables or passages of the source.
# Target: T1, SBC2 (Homo sapiens, UniProt O14508)
# T1 construct: SOCS2 (amino acids 32–198); His6 (N, cleaved yes); made in house; host or cells: E. coli BL21(DE3)
# Assay: Covalent fluorescence polarization (FP) probe displacement assay
# Type: binding
# Settings: for kinact/KI: read-out: Slope: Kinact/Ki (converted); for Anisotropy based on Raw Data (485): Cycle 7 (30 min); for Fb, fraction bound: Cycle 2 (5 min); for Anisotropy data 485,520,520 / Normalised anisotropy (0 nM MN551 = 1, free probe = 0) / Anisotropy normalised (0 nM MN551 = 1, free probe = 0): n=1
# Source text: With the specific covalent modification of Cys111 established, we decided to fully characterize MN551 as a covalent SOCS2 inhibitor. […] (Fig. 2g, h, Supplementary Fig. 9). Due to the covalent nature of the competing inhibitor, a time-dependent reduction in the fraction of protein-bound probe is observed. […] This value illustrates reasonable specificity for a covalent inhibitor, with nonetheless scope for future optimization. In addition to characterizing the kinetic covalency parameters, we have also assessed the stability of the MN551 by monitoring its reactivity (half-life >70 min) with reduced glutathione (GSH) (Supplementary Fig. 10)[35].
# To monitor the SBC2-ligand binding kinetics we designed a fluorescein-labeled small-molecule probe - compound 26. The fluorescence polarization (anisotropy) of a threefold serial dilution of 50 µM SBC2 in 10 nM of the probe in 100 mM HEPES pH 7.5, 50 mM NaCl, 0.5 mM TCEP, 2% DMSO was measured to determine the KL (Supplementary Fig. 9A) (BMG Labtech PHERAstar – firmware v1.33). Protein titration and the curves were fitted using GraphPad Prism 9, using one-site fitting models to determine the probe binding constant, KL. Samples were run in triplicate in 384 well plates, using a total volume per well of 16 μL. The bound fraction of the probe is measure using the equation:1 Fb=Af−A/Af−Ab Where,
# A time-dependent reduction in probe anisotropy were measured for a 2-fold serial dilution of […] compound MN551 in 10 nM probe +300 μM SBC2. To determine the initial reversible binding affinity, the initial bound fraction of the probe at time = 0, Fbo (the y-intercept in Fb v/s Time plot, Supplementary Fig. 9B) was plotted against MN551 concentration, and the obtained IC50 is then converted to Ki (Supplementary Fig. 9C)[17]. The slope from Fb versus time graph when divided by Fbo gives rate of covalency, kobs. A plot of kobs v/s MN551 concentration using Michaelis–Menten model of GraphPad Prism 9, provides the parameters kinact (maximum potential rate of inactivation) and KI (concentration of MN551 at which kobs = kinact/2) (Supplementary Fig. 9D, E).
# The observed first-order rate constant, kobs is related to KI and kinact by the equation:2 kobs=kinactI/KI+I
# At [I]«[KI] the above equation is converted to3 […]
# The slope from the plot of kobs against concentration of MN551 gives us the covalent efficiency parameter kinact/KI (Supp Fig. 9F)[30],[33].
# [1] = MN551 12.599 nM, Cycle 11 (50 min)
# [2] = MN551 12.599 nM, Cycle 18 (85 min)
# [3] = MN551 17.6386 nM, Cycle 11 (50 min)
# [4] = MN551 17.6386 nM, Cycle 12 (55 min)
# [5] = MN551 17.6386 nM, Cycle 18 (85 min)
# [6] = MN551 24.694 nM, Cycle 11 (50 min)
# [7] = MN551 24.694 nM, Cycle 12 (55 min)
# [8] = MN551 24.694 nM, Cycle 18 (85 min)
# [9] = MN551 34.5716 nM, Cycle 11 (50 min)
# [10] = MN551 34.5716 nM, Cycle 12 (55 min)
# [11] = MN551 34.5716 nM, Cycle 18 (85 min)
# T1 sequence (O14508 32-198): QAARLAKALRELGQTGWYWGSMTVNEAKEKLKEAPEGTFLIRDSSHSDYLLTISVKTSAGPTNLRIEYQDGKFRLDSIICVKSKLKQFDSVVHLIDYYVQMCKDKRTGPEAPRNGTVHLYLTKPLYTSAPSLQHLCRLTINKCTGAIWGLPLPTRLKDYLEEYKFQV
# T1 sequence (Q15370 1-104 partner limits assumed): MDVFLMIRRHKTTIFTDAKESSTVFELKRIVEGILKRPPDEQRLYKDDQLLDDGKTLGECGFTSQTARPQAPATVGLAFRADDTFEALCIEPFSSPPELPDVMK
# T1 sequence (Q15369 17-112 partner limits assumed): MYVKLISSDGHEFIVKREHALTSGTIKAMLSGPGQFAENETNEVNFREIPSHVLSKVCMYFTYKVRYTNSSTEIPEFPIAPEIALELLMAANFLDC
compound,measurement,setting,value
O=C(CCl)Nc1cccc(CNC(=O)[C@H](Cc2ccc(OP(=O)(O)O)cc2)NC(=O)Cc2ccc(F)cc2)c1 [MN551],kinact,"FP competition assay to evaluate MN551 covalent efficiency, experiment n=1, from Michaelis-Menten fit (Vmax), read-out: Kinact (converted)",0.0145 min⁻¹
same,kinact,"FP competition assay to evaluate MN551 covalent efficiency, experiment n=1, read-out: Kinact (converted)",0.0145 min⁻¹
same,kinact/KI,"FP competition assay to evaluate MN551 covalent efficiency, experiment n=1, slope of linear fit, MN551 below Ki titration",55.8 M⁻¹ s⁻¹
same,kinact/KI,"FP competition assay to evaluate MN551 covalent efficiency, experiment n=1, slope of linear fit",55.8 M⁻¹ s⁻¹
same,kinact,"FP competition assay, replicate n=3, read-out: Kinact (min-1) (converted)",0.0174 min⁻¹
same,kinact,"FP competition assay, replicate n=3, read-out: Kinact (s-1)",0.0174 min⁻¹
same,kinact/KI,"FP competition assay, replicate n=3",61.5 M⁻¹ s⁻¹
same,Anisotropy based on Raw Data (485),MN551 12.207 nM,281.1 and 280.8 and 279.5
same,"Fb, fraction bound",MN551 12.207 nM,0.9935 and 1.0185 and 1.023
same,Anisotropy,"MN551 12.207 nM, Cycle 11 (50 min)",276.9 and 277 and 280.3
same,"Anisotropy data 485,520,520","MN551 12.207 nM, Cycle 18 (85 min)",272.5 and 273.4 and 274.8
same,Anisotropy based on Raw Data (485),MN551 12.599 nM,275 and 272 and 270
same,"Normalised anisotropy (0 nM MN551 = 1, free probe = 0)","MN551 12.599 nM, Cycle 13 (60 min)",0.9972 and 0.9668 and 1.008
same,"Normalised anisotropy (0 nM MN551 = 1, free probe = 0)","MN551 12.599 nM, Cycle 14 (65 min)",1.04 and 1.018 and 1.012
same,"Fb, fraction bound",MN551 12.599 nM,1.02 and 0.9926 and 1.014
same,Anisotropy,[1],278.4 and 278.3 and 275.7
same,Fb,[1],1.027 and 1.013 and 1.017
same,Fb,"MN551 12.599 nM, Cycle 12 (55 min)",1.006 and 1.0163 and 0.9962
same,"Anisotropy data 485,520,520",[2],273.9 and 272.6 and 271.8
same,"Anisotropy normalised (0 nM MN551 = 1, free probe = 0)",[2],1.0213 and 1.004 and 1.0408
same,"Anisotropy normalised (0 nM MN551 = 1, free probe = 0)","MN551 12.599 nM, Cycle 19 (90 min)",1.03 and 1.012 and 1.015
same,"Anisotropy normalised (0 nM MN551 = 1, free probe = 0)","MN551 12.599 nM, Cycle 20 (95 min)",0.9942 (2×) and 0.9893
same,Anisotropy based on Raw Data (485),MN551 17.6386 nM,276.7 and 273.3 and 271.3
same,"Normalised anisotropy (0 nM MN551 = 1, free probe = 0)","MN551 17.6386 nM, Cycle 13 (60 min)",1.033 and 0.9926 and 1.023
same,"Normalised anisotropy (0 nM MN551 = 1, free probe = 0)","MN551 17.6386 nM, Cycle 14 (65 min)",1.058 and 1.0113 and 1.0096
same,"Fb, fraction bound",MN551 17.6386 nM,1.066 and 1.015 and 1.047
same,Anisotropy,[3],282.4 and 277.6 and 277.2
same,Fb,[3],1.065 and 1.007 and 1.031
same,Anisotropy,[4],282.3 and 277.4 and 277.1
same,Fb,[4],1.042 and 1.027 and 1.02
same,"Anisotropy data 485,520,520",[5],277.5 and 272.7 and 272.2
same,"Anisotropy normalised (0 nM MN551 = 1, free probe = 0)",[5],1.056 and 1.005 and 1.045
same,"Anisotropy normalised (0 nM MN551 = 1, free probe = 0)","MN551 17.6386 nM, Cycle 19 (90 min)",1.075 and 1.012 and 1.027
same,"Anisotropy normalised (0 nM MN551 = 1, free probe = 0)","MN551 17.6386 nM, Cycle 20 (95 min)",1.027 and 0.9971 and 1.019
same,Anisotropy based on Raw Data (485),MN551 24.4141 nM,282.9 and 279.8 and 282
same,"Fb, fraction bound",MN551 24.4141 nM,1.016 and 1.08 and 1.041
same,Anisotropy,"MN551 24.4141 nM, Cycle 11 (50 min)",280.9 and 281.2 and 279.7
same,Anisotropy,"MN551 24.4141 nM, Cycle 12 (55 min)",280
same,"Anisotropy data 485,520,520","MN551 24.4141 nM, Cycle 18 (85 min)",276.9 and 277.7 and 276.3
same,Anisotropy based on Raw Data (485),MN551 24.694 nM,274.8 and 272.6 and 276.9
same,"Normalised anisotropy (0 nM MN551 = 1, free probe = 0)","MN551 24.694 nM, Cycle 13 (60 min)",1.02 and 0.977 and 1.0251
same,"Normalised anisotropy (0 nM MN551 = 1, free probe = 0)","MN551 24.694 nM, Cycle 14 (65 min)",1.023 and 1.014 and 1.022
same,"Fb, fraction bound",MN551 24.694 nM,1.025 and 1.008 and 1.0546
same,Anisotropy,[6],280.6 and 275.8 and 277.4
same,Fb,[6],1.048 and 0.9896 and 1.033
same,Anisotropy,[7],282.7 and 278.3 and 277.5
same,Fb,[7],1.046 and 1.035 and 1.024
same,"Anisotropy data 485,520,520",[8],274.3 and 273.5 and 273.4
same,"Anisotropy normalised (0 nM MN551 = 1, free probe = 0)",[8],1.025 and 1.012 and 1.057
same,"Anisotropy normalised (0 nM MN551 = 1, free probe = 0)","MN551 24.694 nM, Cycle 19 (90 min)",1.038 and 1.023 and 1.016
same,"Anisotropy normalised (0 nM MN551 = 1, free probe = 0)","MN551 24.694 nM, Cycle 20 (95 min)",1.035 and 1.007 and 1.013
same,Anisotropy based on Raw Data (485),MN551 34.5716 nM,274.4 and 276.1 and 281.6
same,"Normalised anisotropy (0 nM MN551 = 1, free probe = 0)","MN551 34.5716 nM, Cycle 13 (60 min)",1.034 and 1.023 and 1.046
same,"Normalised anisotropy (0 nM MN551 = 1, free probe = 0)","MN551 34.5716 nM, Cycle 14 (65 min)",1.052 and 1.027 and 1.028
same,"Fb, fraction bound",MN551 34.5716 nM,1.054 and 1.044 and 1.086
same,Anisotropy,[9],283.1 and 279.4 and 279.3
same,Fb,[9],1.072 and 1.024 and 1.051
same,Anisotropy,[10],281.9 and 279 and 279.2
same,Fb,[10],1.038 and 1.042 and 1.04
same,"Anisotropy data 485,520,520",[11],278.1 and 277 and 275.1
same,"Anisotropy normalised (0 nM MN551 = 1, free probe = 0)",[11],1.062 and 1.046 and 1.074
same,"Anisotropy normalised (0 nM MN551 = 1, free probe = 0)","MN551 34.5716 nM, Cycle 19 (90 min)",1.076 and 1.071 and 1.037
same,"Anisotropy normalised (0 nM MN551 = 1, free probe = 0)","MN551 34.5716 nM, Cycle 20 (95 min)",1.051 and 1.0281 and 1.04
same,Anisotropy based on Raw Data (485),MN551 48.4003 nM,280.1 and 278.6 (2×)
same,"Normalised anisotropy (0 nM MN551 = 1, free probe = 0)","MN551 48.4003 nM, Cycle 13 (60 min)",1.018 and 0.9871 and 0.9961
same,"Normalised anisotropy (0 nM MN551 = 1, free probe = 0)","MN551 48.4003 nM, Cycle 14 (65 min)",1.029 and 1 and 1.015
